Results taken from patent EP3714904B1, “IMINODIACETIC ACID SUBSTITUTED CYCLODEXTRINS AS POTENTIATORS OF BETA-LACTAM ANTIBIOTICS” (NATIONAL CENTER FOR SCIENTIFIC RESEARCH "DEMOKRITOS" (NCSRD), priority 2019, dated 2020).

Tested on: Klebsiella pneumoniae
Assay: MIC of β-lactams alone or with 50 µM IDACYD against clinical isolates
Format: cell-based
Protocol: Further the in-vitro inhibitory activity of IDACYDs was tested against highly resistant pathogens. […] Table 2: Collection of clinical isolates used for in-vitro evaluation

[1] = isolate LA-34 (VIM, CMY), second entry of Table 3
[2] = isolate LAR-26I/15 (NDM, VIM, CTXM)
[3] = isolate LAR-37II/15 (NDM, VIM, CTXM)
[4] = isolate LAR-38I/15 (VIM, NDM, CTXM)
[5] = isolate LAR-7547 (NDM, VIM, CTXM)
[6] = isolate TZAN-59 (β-lactamase: None)

In the case of `CO[C@@H]1[C@@H](OC)[C@H]2O[C@H]3[C@H](OC)[C@@H](OC)[C@@H](O[C@H]4[C@H](OC)[C@@H](OC)[C@@H](O[C@H]5[C@H](OC)[C@@H](OC)[C@@H](O[C@H]6[C@H](OC)[C@@H](OC)[C@@H](O[C@H]7[C@H](OC)[C@@H](OC)[C@@H](O[C@H]8[C@H](OC)[C@@H](OC)[C@@H](O[C@@H]1[C@@H](CN(CC(=O)O)CC(=O)O)O2)O[C@@H]8CN(CC(=O)O)CC(=O)O)O[C@@H]7CN(CC(=O)O)CC(=O)O)O[C@@H]6CN(CC(=O)O)CC(=O)O)O[C@@H]5CN(CC(=O)O)CC(=O)O)O[C@@H]4CN(CC(=O)O)CC(=O)O)O[C@@H]3CN(CC(=O)O)CC(=O)O` [β-IDACYD], the “Meropenem /50µM β-IDACYD MIC” value (isolate LA-34 (VIM, CMY), first entry of Table 3) was 0.25 µg/mL, the “Imipenem /50µM β-IDACYD MIC” value [1] was 0.25 µg/mL and the “Meropenem /50µM β-IDACYD MIC” value [1] was 0.25 µg/mL. The “Imipenem /50µM β-IDACYD MIC” value (isolate LA-38 (NDM)) was <0.125 µg/mL, the “Meropenem /50µM β-IDACYD MIC” value (isolate LA-38 (NDM)) was 0.5 µg/mL and the “Ceftazidime/ 50µM β-IDACYD MIC” value (isolate LA-82/16 (VIM, SHV)) was 32 µg/mL. The “Imipenem /50µM β-IDACYD MIC” value (isolate LA-82/16 (VIM, SHV)) was <0.125 µg/mL, the “Meropenem /50µM β-IDACYD MIC” value (isolate LA-82/16 (VIM, SHV)) was 0.25 µg/mL and the “Ceftazidime/ 50µM β-IDACYD MIC” value (isolate LA-109/16 (VIM, CTXM)) was 32 µg/mL. For the same molecule, the “Imipenem /50µM β-IDACYD MIC” value (isolate LA-109/16 (VIM, CTXM)) was <0.125 µg/mL, the “Meropenem /50µM β-IDACYD MIC” value (isolate LA-109/16 (VIM, CTXM)) was <0.25 µg/mL and the “Imipenem /50µM β-IDACYD MIC” value (isolate LA-419/16 (NDM,CTXM)) was <0.125 µg/mL. For the same molecule, the “Meropenem /50µM β-IDACYD MIC” value (isolate LA-419/16 (NDM,CTXM)) was <0.25 µg/mL, the “Imipenem /50µM β-IDACYD MIC” value (isolate LA-470/17 (NDM)) was 8 µg/mL and the “Meropenem /50µM β-IDACYD MIC” value (isolate LA-470/17 (NDM)) was 32 µg/mL. For the same molecule, the “Imipenem /50µM β-IDACYD MIC” value [2] was 0.125 µg/mL, the “Meropenem /50µM β-IDACYD MIC” value [2] was 0.5 µg/mL and the “Imipenem /50µM β-IDACYD MIC” value [3] was <0.125 µg/mL. For the same molecule, the “Meropenem /50µM β-IDACYD MIC” value [3] was <0.25 µg/mL, the “Imipenem /50µM β-IDACYD MIC” value [4] was <0.125 µg/mL and the “Meropenem /50µM β-IDACYD MIC” value [4] was <0.25 µg/mL. For the same molecule, the “Imipenem /50µM β-IDACYD MIC” value (isolate LAR-40II/15 (KPC)) was 16 µg/mL, the “Meropenem /50µM β-IDACYD MIC” value (isolate LAR-40II/15 (KPC)) was 64 µg/mL and the “Imipenem /50µM β-IDACYD MIC” value (isolate LAR-2873 (VIM-12)) was <0.125 µg/mL. The “Meropenem /50µM β-IDACYD MIC” value (isolate LAR-2873 (VIM-12)) was <0.25 µg/mL, the “Ceftazidime/ 50µM β-IDACYD MIC” value (isolate LAR-4011/15) was 32 µg/mL and the “Imipenem /50µM β-IDACYD MIC” value [5] was 4 µg/mL. The “Meropenem /50µM β-IDACYD MIC” value [5] was 16 µg/mL, the “Imipenem /50µM β-IDACYD MIC” value (isolate SEC-2 (VIM)) was 2 µg/mL and the “Meropenem /50µM β-IDACYD MIC” value (isolate SEC-2 (VIM)) was 2 µg/mL. The “Imipenem /50µM β-IDACYD MIC” value (isolate SEC-4 (VIM)) was 2 µg/mL, the “Meropenem /50µM β-IDACYD MIC” value (isolate SEC-4 (VIM)) was 1 µg/mL and the “Imipenem /50µM β-IDACYD MIC” value [6] was 0.5 µg/mL. For the same molecule, the “Meropenem /50µM β-IDACYD MIC” value [6] was 0.5 µg/mL, the “Ceftazidime/ 50µM β-IDACYD MIC” value (isolate UoA 12/227 (VIM)) was <0.25 µg/mL and the “Imipenem /50µM β-IDACYD MIC” value (isolate UoA 12/227 (VIM)) was <0.125 µg/mL. The “Meropenem /50µM β-IDACYD MIC” value (isolate UoA 12/227 (VIM)) was <0.25 µg/mL, the “Ceftazidime/ 50µM β-IDACYD MIC” value (isolate UoA 1995 (VIM)) was <0.25 µg/mL and the “Imipenem /50µM β-IDACYD MIC” value (isolate UoA 1995 (VIM)) was <0.125 µg/mL. The “Meropenem /50µM β-IDACYD MIC” value (isolate UoA 1995 (VIM)) was <0.25 µg/mL.
